“And” between values parts separate entries of the source, which are not always exact repeats. Equal values may be shown once.
Test: in vitro permeation test, Gummer permeation vertical cells
Assay type: in vitro ADME, mice
Conditions: for ciclopirox permeated: 75.0 μL of composition of Example 4 on hairless mice skin, individual experiments test 1-6
Description: An in vitro permeation test was performed by applying the film forming solution according to the Example 4 to excised hairless mice skin, obtained from dorsal or abdominal skin of male hairless mice (strain MF1-hr-hr/OIa, Nossan srl, Correzzana, Milan, Italy) aged 7-10 weeks. Portions of the skin (ca 9 cm^2), after removal of adhering fat and subcutaneous tissues, were placed as a barrier between the two compartment of Gummer permeation vertical cells (Gummer, C. L. et al. The skin penetration cell: design update. Int. J. Pharm. 1987, 40, 101-104). The receiving phase was introduced into the lower compartment and 75.0 μL of the composition according to the Example 4 were regularly distributed on the exposed skin surface. At predetermined time intervals (1, 2, 3, 4 and 5 hours) 5.0 mL of the receiving solution were collected for analysis and immediately replaced by an equal volume of fresh buffer. The experiment was replicated 6 times.

With `Cc1cc(C2CCCCC2)n(O)c(=O)c1` [ciclopirox] the “permeation through mice skin, conclusion” value was “able to permeate the mice skin”, the ciclopirox permeated (h 1) was 0.001548 mg/cm^2 and 0.002964 mg/cm^2 and 0.001542 mg/cm^2 and 0.001617 mg/cm^2 and 0.00487 mg/cm^2 and 0.02038 mg/cm^2 and the ciclopirox permeated (h 2) was 0.01134 mg/cm^2 and 0.05066 mg/cm^2 and 0.01241 mg/cm^2 and 0.0445 mg/cm^2 and 0.04696 mg/cm^2 and 0.1182 mg/cm^2. For the same molecule, the ciclopirox permeated (h 3) was 0.05601 mg/cm^2 and 0.102 mg/cm^2 and 0.04902 mg/cm^2 and 0.1745 mg/cm^2 and 0.2725 mg/cm^2 and 0.4084 mg/cm^2, the ciclopirox permeated (h 4) was 0.1146 mg/cm^2 and 0.1226 mg/cm^2 and 0.08552 mg/cm^2 and 0.2757 mg/cm^2 and 0.5273 mg/cm^2 and 0.7623 mg/cm^2 and the ciclopirox permeated (h 5) was 0.1721 mg/cm^2 and 0.1401 mg/cm^2 and 0.1517 mg/cm^2 and 0.328 mg/cm^2 and 0.7212 mg/cm^2 and 1.025 mg/cm^2.

— patent US20100062083A1, “DERMAL FILM-FORMING LIQUID FORMULATIONS FOR DRUG RELEASE TO SKIN” (POLICHEM S.A., priority 2007, published 2010)
